Four molecules from BindingDB's records for doi:10.1021/acschembio.7b00124 (University of Helsinki, 2017) can be followed below.

In assay [1] the target is Chymotrypsin-like elastase family member 1 (Bos taurus, UniProt Q28153). Briefly: Protease Inhibition Assays. The following applies: 37 °C. The protocol: (§1) The inhibition assays were performed in 96-well microtiter plates as follows: 30 uL of the enzyme solution (trypsin [100 ug/mL] or elastase [1.5 U/mL]) and 60 uL of the buffer (50 mM Tris-HCl, 20 mM CaCl2 at pH 7.5) were pipetted into a series of six wells. A total of 10 uL of a 2000 uM peptide solution (microviridin variant) was then added to well 1 and serially diluted up to well 5; well 6 was used as the control. After completing the serial dilution of the sample, 10 uL was taken from well 5 and discarded to maintain the same volume in all wells. The plates were then incubated for 5 min at 37 °C, and subsequently 90 uL of the substrate solution (trypsin assay, N-benzoyl-DL-arginine-4-nitroanilide hydrochloride (BAPNA) [2.17 mg mL-1]; elastase assay, succinyl-Ala-Ala-Ala-p-nitroanilide (Suc-ALA3-pNA) [1 mg mL-1]) was added to each well. The enzymatic activity was measured spectrophotometrically (Varioscan Flash, Thermo Scientific) at 410 nm after incubation at 37 °C for 15 m

In a further assay the target is T1, Serine protease 1 (Bos taurus, UniProt P00760).
T1 sequence (P00760 whole entry): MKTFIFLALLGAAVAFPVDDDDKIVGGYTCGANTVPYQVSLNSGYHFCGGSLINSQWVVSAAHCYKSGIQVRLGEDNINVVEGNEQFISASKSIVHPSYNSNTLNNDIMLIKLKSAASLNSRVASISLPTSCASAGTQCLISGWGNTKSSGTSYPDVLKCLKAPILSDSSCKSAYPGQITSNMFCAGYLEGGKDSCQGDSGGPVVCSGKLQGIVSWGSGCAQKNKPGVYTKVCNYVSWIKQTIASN
Briefly: Protease Inhibition Assays. The following applies: 37 °C. The procedure: as §1

For orientation: IC50 means the midpoint of a concentration-inhibition curve. The low end stands for greater potency in that assay, the high end for weaker potency in that assay.

Where a SMILES comes first, the peptide text is derived from it. Bridges are numbered along the chain shown (N, C = ends). [ ]: non-standard residue; d: D form. ξ: configuration not given here. Thr(3ξ) = CC(O)[C@H](N)C(=O)O; hLys = NCCCCC[C@H](N)C(=O)O

Chymotrypsin-like elastase family member 1, sequence (Q28153 whole entry): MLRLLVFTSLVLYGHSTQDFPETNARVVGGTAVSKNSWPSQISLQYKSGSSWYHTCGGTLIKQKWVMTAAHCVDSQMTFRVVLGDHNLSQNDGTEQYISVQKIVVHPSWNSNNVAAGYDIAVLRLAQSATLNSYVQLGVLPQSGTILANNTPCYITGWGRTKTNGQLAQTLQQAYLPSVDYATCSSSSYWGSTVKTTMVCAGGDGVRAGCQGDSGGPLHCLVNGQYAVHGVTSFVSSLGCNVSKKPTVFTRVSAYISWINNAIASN

Consider `CC(C)C[C@@H]1NC(=O)[C@@H](NC(=O)[C@H](CC(N)=O)NC(=O)[C@H](CCC(N)=O)NC(=O)[C@@H](N)Cc2ccc(O)cc2)C(C)OC(=O)C[C@@H]2NC(=O)[C@@H]3COC(=O)CC[C@H](NC(=O)[C@H](Cc4c[nH]c5ccccc45)NC2=O)C(=O)N[C@H](C(=O)N[C@@H](Cc2ccc(O)cc2)C(=O)O)CCC(=O)NCCCC[C@H](NC1=O)C(=O)N[C@@H](Cc1ccc(O)cc1)C(=O)N1CCC[C@H]1C(=O)N3` (some centres undefined) [MdnA7] (H-YQN[Thr(3ξ)]LKYPSDWEEY-OH; ester 4-10, 9-12; lactam 6-13), for which the IC50 in assay [1] was determined as 1050 nM. Molecule `CC(C)[C@H](NC(=O)[C@@H](N)Cc1ccc(O)cc1)C(=O)N[C@@H]1C(=O)N[C@@H](CCCCCN)C(=O)N[C@H]2CCCCNC(=O)CC[C@@H](C(=O)N[C@@H](Cc3ccc(O)cc3)C(=O)O)NC(=O)[C@@H]3CCC(=O)OC[C@H](NC(=O)[C@@H]4CCCN4C(=O)[C@H](Cc4ccc(O)cc4)NC2=O)C(=O)N[C@@H](CC(=O)OC1C)C(=O)N[C@@H](Cc1c[nH]c2ccccc12)C(=O)N3` (some centres undefined) [MdnA6] (H-YV[Thr(3ξ)][hLys]KYPSDWEEY-OH; ester 3-9, 8-11; lactam 5-12) displayed a concentration for half-maximal inhibition (IC50) on Serine protease 1 of 21.5 nM. That is a double-digit nanomolar value. The molecule `CC(C)[C@H](NC(=O)[C@@H](N)[C@@H](C)O)C(=O)N[C@@H]1C(=O)N[C@@H](CCCNC(=N)N)C(=O)N[C@H]2CCCCNC(=O)C[C@@H](C(=O)N[C@@H](Cc3ccc(O)cc3)C(=O)O)NC(=O)[C@@H]3CCC(=O)OC[C@H](NC(=O)[C@@H]4CCCN4C(=O)[C@H](Cc4ccc(O)cc4)NC2=O)C(=O)N[C@@H](CC(=O)OC1C)C(=O)N[C@@H](Cc1c[nH]c2ccccc12)C(=O)N3` (some centres undefined) [MdnA3] (H-TV[Thr(3ξ)]RKYPSDWEDY-OH; ester 3-9, 8-11; lactam 5-12) showed a half-maximal inhibitory concentration (IC50) against Serine protease 1 of 28.4 nM. The IC50 values of the last two molecules are within 1.5-fold of each other.

Turning to `CC(C)C[C@@H]1NC(=O)[C@@H](NC(=O)[C@H](C)N)C(C)OC(=O)C[C@@H]2NC(=O)[C@@H]3COC(=O)CC[C@H](NC(=O)[C@H](Cc4c[nH]c5ccccc45)NC2=O)C(=O)N[C@H](C(=O)N[C@@H](Cc2ccc(O)cc2)C(=O)O)CCC(=O)NCCCC[C@H](NC1=O)C(=O)N[C@@H](Cc1ccc(O)cc1)C(=O)N1CCC[C@H]1C(=O)N3` (some centres undefined) [MdnA8] (H-A[Thr(3ξ)]LKYPSDWEEY-OH; ester 2-8, 7-10; lactam 4-11), it took 21800 nM to reach half-maximal inhibition in assay [1] (IC50).
